In the supplement of paper PMC11208160:

Assay: recombinant UMI read abundance after kanamycin selection (control-corrected) (log10(CPM+1)); higher = more efficient recombination; extreme values may be limits of the assay; sequences stand for … in AGTGCAGAGAAAATCGGCCAGTTTTCTCTGCCTGCAGTCCGCATGCCGTGGGACCCCTTGGGTTCTAACCTGTTGCCTAGATTTATGCAGCGGACTGCCTTTCTCCCAAAGTGATAAACCGG…AGGTTGGTTTCACT; site = the 11-nt donor
Summary of the method: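 In a pooled Escherichia coli screen for the IS621 bridge recombinase, donor and donor-binding-loop pairs were each placed with a 12-nt UMI on a plasmid bearing a promoterless kanamycin gene. This library was co-electroporated with a target plasmid encoding a fixed target and T7-inducible recombinase, and cells were plated either on IPTG (0.07 mM) plus kanamycin or without selection, in two replicates each. Recombinant UMIs were PCR-amplified across the donor–target junction and sequenced, and counts were converted to CPM, averaged over replicates, scaled by control-derived factors and reported as log10(CPM+1).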
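Further: IS621 bridge recombinase in Escherichia coli cells against a fixed T5 target plasmid.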

Sequence	recombinant UMI read abundance (log10)
CTTGGAACATGGACCGGTTTTCCCGGTAATCCGTATTTGTT (site CGTGGAACTAA)	0.00508
CTTGGAACATGGACCGGTTTTCCCGGTAATCCGTATTTGTT (site CTTGGAACTAA)	1.36
CTTGTAACATGGACCGGTTTTCCCGGTAATCCGTATTTGCA (site CTTGTAACTTG)	0.147
CTTGTATCATGGACCGGTTTTCCCGGTAATCCGTATTTGAC (site CTAGTATCTGT)	0
CTTGTATCATGGACCGGTTTTCCCGGTAATCCGTATTTGAC (site CTCGTATCTGT)	0
CTTGTATCATGGACCGGTTTTCCCGGTAATCCGTATTTGAC (site CTGGTATCTGT)	0
CTTGTATCATGGACCGGTTTTCCCGGTAATCCGTATTTGAC (site CTTGTATCTGT)	0
CTTGTATCATGGACCGGTTTTCCCGGTAATCCGTATTTGGC (site CTAGTATCTGT)	0.315
CTTGTATCATGGACCGGTTTTCCCGGTAATCCGTATTTGGC (site CTTGTATCTGC)	0.486
CTTTAAACATGGACCGGTTTTCCCGGTAATCCGTATTTGTC (site CTTTAAACTGA)	0
CTTTTCTCATGGACCGGTTTTCCCGGTAATCCGTATTTGTA (site CTTATCTCTTA)	0
CTTTTCTCATGGACCGGTTTTCCCGGTAATCCGTATTTGTA (site CTTCTCTCTTA)	0.274
CTTTTCTCATGGACCGGTTTTCCCGGTAATCCGTATTTGTA (site CTTGTCTCTTA)	0.00384
CTTTTCTCATGGACCGGTTTTCCCGGTAATCCGTATTTGTA (site CTTTTCTCTTA)	0.0916
GAAACTACATGGACCGGTTTTCCCGGTAATCCGTATTTGCC (site GAAACTACTGG)	1.88
GAACACCCATGGACCGGTTTTCCCGGTAATCCGTATTTGGA (site GAACACCCTTC)	0.00915
GAACATACATGGACCGGTTTTCCCGGTAATCCGTATTTGAA (site GAACATACTTT)	1.69
GAACATTCATGGACCGGTTTTCCCGGTAATCCGTATTTGTT (site GAAAATTCTAA)	0
GAACATTCATGGACCGGTTTTCCCGGTAATCCGTATTTGTT (site GAACATTCTAA)	2.03
GAACATTCATGGACCGGTTTTCCCGGTAATCCGTATTTGTT (site GAAGATTCTAA)	0
GAACATTCATGGACCGGTTTTCCCGGTAATCCGTATTTGTT (site GAATATTCTAA)	0.0114
GAACCGACATGGACCGGTTTTCCCGGTAATCCGTATTTGGT (site GAACCGACTAC)	0.724
GAACGGCCATGGACCGGTTTTCCCGGTAATCCGTATTTGCA (site GAAAGGCCTTG)	0
GAACGGCCATGGACCGGTTTTCCCGGTAATCCGTATTTGCA (site GAACGGCCTTG)	0.812
GAACGGCCATGGACCGGTTTTCCCGGTAATCCGTATTTGCA (site GAAGGGCCTTG)	0

Sequence	recombinant UMI read abundance (log10)
GAACGGCCATGGACCGGTTTTCCCGGTAATCCGTATTTGCA (site GAATGGCCTTG)	0
GAACTCACATGGACCGGTTTTCCCGGTAATCCGTATTTGCT (site GAACTCACTAG)	2.53
GAACTGGCATGGACCGGTTTTCCCGGTAATCCGTATTTGCG (site GAACTGGCTCG)	0.715
GAACTTACATGGACCGGTTTTCCCGGTAATCCGTATTTGCG (site GAACTTACTCG)	1.85
GAAGACTCATGGACCGGTTTTCCCGGTAATCCGTATTTGTT (site GAAGAATCTAA)	0.423
GAAGACTCATGGACCGGTTTTCCCGGTAATCCGTATTTGTT (site GAAGACTCTAA)	2.84
GAAGACTCATGGACCGGTTTTCCCGGTAATCCGTATTTGTT (site GAAGAGTCTAA)	0.00964
GAAGACTCATGGACCGGTTTTCCCGGTAATCCGTATTTGTT (site GAAGATTCTAA)	0.506
GAAGGAGCATGGACCGGTTTTCCCGGTAATCCGTATTTGTA (site GAAGGAGCTTA)	2.33
GAAGGGCCATGGACCGGTTTTCCCGGTAATCCGTATTTGCA (site GAAAGGCCTTG)	0
GAAGGGCCATGGACCGGTTTTCCCGGTAATCCGTATTTGCA (site GAACGGCCTTG)	0
GAAGGGCCATGGACCGGTTTTCCCGGTAATCCGTATTTGCA (site GAAGGGCCTTG)	0
GAAGGGCCATGGACCGGTTTTCCCGGTAATCCGTATTTGCA (site GAATGGCCTTG)	0
GAAGGTTCATGGACCGGTTTTCCCGGTAATCCGTATTTGTT (site GAAGATTCTAA)	1.32
GAAGGTTCATGGACCGGTTTTCCCGGTAATCCGTATTTGTT (site GAAGCTTCTAA)	0.00355
GAAGGTTCATGGACCGGTTTTCCCGGTAATCCGTATTTGTT (site GAAGGTTCTAA)	2.35
GAAGGTTCATGGACCGGTTTTCCCGGTAATCCGTATTTGTT (site GAAGTTTCTAA)	0
GAAGTCACATGGACCGGTTTTCCCGGTAATCCGTATTTGGG (site AAAGTCACTCC)	0.11
GAAGTCACATGGACCGGTTTTCCCGGTAATCCGTATTTGGG (site CAAGTCACTCC)	0.0174
GAAGTCACATGGACCGGTTTTCCCGGTAATCCGTATTTGGG (site GAAGTCACTCC)	0.412
GAAGTCACATGGACCGGTTTTCCCGGTAATCCGTATTTGGG (site TAAGTCACTCC)	0.221
GAAGTGACATGGACCGGTTTTCCCGGTAATCCGTATTTGCG (site GAAGTGACTCG)	2.14
GAATAAGCATGGACCGGTTTTCCCGGTAATCCGTATTTGTG (site GAATAAGCTCA)	1.99
GAATATCCATGGACCGGTTTTCCCGGTAATCCGTATTTGCT (site GAATATCCTAG)	1.3
GAATATCCATGGACCGGTTTTCCCGGTAATCCGTATTTGCT (site GACTATCCTAG)	0

Sequence	recombinant UMI read abundance (log10)
GAATATCCATGGACCGGTTTTCCCGGTAATCCGTATTTGCT (site GAGTATCCTAG)	0
GAATATCCATGGACCGGTTTTCCCGGTAATCCGTATTTGCT (site GATTATCCTAG)	0
GAATCATCATGGACCGGTTTTCCCGGTAATCCGTATTTGCT (site CGATCATCTAG)	1.88
GAATCATCATGGACCGGTTTTCCCGGTAATCCGTATTTGCT (site GAATCATCTAG)	1.95
GAATCGTCATGGACCGGTTTTCCCGGTAATCCGTATTTGCA (site GAATCGTCTTG)	2.71
GAATCTCCATGGACCGGTTTTCCCGGTAATCCGTATTTGAA (site GAATCTCCTTT)	0.611
GAATGCACATGGACCGGTTTTCCCGGTAATCCGTATTTGTA (site GAATGCACTTA)	1.87
GAATGCACATGGACCGGTTTTCCCGGTAATCCGTATTTGTA (site GCATGCACTTA)	0.691
GAATGCACATGGACCGGTTTTCCCGGTAATCCGTATTTGTA (site GGATGCACTTA)	0.585
GAATGCACATGGACCGGTTTTCCCGGTAATCCGTATTTGTA (site GTATGCACTTA)	0.36
GAATGGACATGGACCGGTTTTCCCGGTAATCCGTATTTGAC (site GAATGGACTGT)	2.81
GAATGGACATGGACCGGTTTTCCCGGTAATCCGTATTTGAC (site GACTGGACTGT)	0
GAATGGACATGGACCGGTTTTCCCGGTAATCCGTATTTGAC (site GAGTGGACTGT)	0
GAATGGACATGGACCGGTTTTCCCGGTAATCCGTATTTGAC (site GATTGGACTGT)	0.743
GAATGGACATGGACCGGTTTTCCCGGTAATCCGTATTTGCA (site GAATGGACTTG)	2.46
GAATGGACATGGACCGGTTTTCCCGGTAATCCGTATTTGCA (site GAATGGCCTTG)	0.483
GAATGGACATGGACCGGTTTTCCCGGTAATCCGTATTTGCA (site GAATGGGCTTG)	2.41
GAATGGACATGGACCGGTTTTCCCGGTAATCCGTATTTGCA (site GAATGGTCTTG)	1.59
GAATGGCCATGGACCGGTTTTCCCGGTAATCCGTATTTGAA (site GAATGGCCTTA)	0.00888
GAATGGCCATGGACCGGTTTTCCCGGTAATCCGTATTTGAA (site GAATGGCCTTC)	0
GAATGGCCATGGACCGGTTTTCCCGGTAATCCGTATTTGAA (site GAATGGCCTTG)	0.0104
GAATGGCCATGGACCGGTTTTCCCGGTAATCCGTATTTGAA (site GAATGGCCTTT)	0.0109
GAATGGTCATGGACCGGTTTTCCCGGTAATCCGTATTTGCA (site GAATGGACTTG)	0.0076
GAATGGTCATGGACCGGTTTTCCCGGTAATCCGTATTTGCA (site GAATGGCCTTG)	0
GAATGGTCATGGACCGGTTTTCCCGGTAATCCGTATTTGCA (site GAATGGGCTTG)	0.00395
